Laboratory results reported in PubChem BioAssay (NCI).
Where “and” joins values, the source holds several entries; their conditions need not be identical. Identical values can stand only once.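 Grown in 96-well plates, cells were treated for 48 hours with each compound at five concentrations. Insufficient inhibition: endpoint recorded as highest concentration tested. Abbreviation: GI50, concentration required for 50% inhibition of growth. At the TGI there is no net growth.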

Key:
Assay in all cases: NCI tumour cell line growth inhibition, 48 h
[1] = test system: COLO 205 colon
[2] = test system: CAKI-1 renal
[3] = test system: RPMI-8226 leukemia
[4] = test system: DU-145 prostate
[5] = test system: SF-295 CNS
[6] = test system: A549 NSCLC
[7] = test system: MALME-3M melanoma
[8] = test system: HOP-62 NSCLC
[9] = test system: SNB-75 CNS
[10] = test system: A498 renal

| Compound | TGI [1] [µM] | TGI [2] | TGI [3] [µM] | TGI [4] [µM] | TGI [5] | TGI [6] | TGI [7] | TGI [8] | TGI [9] | TGI [10] | GI50 [1] | GI50 [2] | GI50 [3] [µM] | GI50 [4] | GI50 [5] | GI50 [6] | GI50 [7] | GI50 [8] | GI50 [9] [µM] | GI50 [10] |
| --- | --- | --- | --- | --- | --- | --- | --- | --- | --- | --- | --- | --- | --- | --- | --- | --- | --- | --- | --- | --- |
| Cn1c(=O)c2[nH]c(CCCc3ccc([N+](=O)[O-])cc3)nc2n(C)c1=O | > 100 | > 100 µM | > 100 | > 100 | > 100 µM | > 100 µM | > 100 µM | > 100 µM | > 100 µM | > 100 µM | – | – | – | – | – | – | – | – | – | – |
| COc1cc(/C=C/C(=O)c2c(C)nc3ccccc3c2C)ccc1OCCCCOc1cc2c(cc1OC)C(=O)N1CCC[C@H]1C=N2 | 2.14 | 1.44 µM | 0.585 | 1.13 | 1.56 µM | 4.17 µM | 2.37 µM | 6.93 µM | 0.929 µM | 0.779 µM | 0.74 µM | 0.331 µM | 0.209 | 0.368 µM | 0.416 µM | 0.46 µM | 0.554 µM | 1.71 µM | 0.334 | 0.286 µM |
| CCOC(=O)[C@@H](C)C[C@H](Cc1ccccc1)NC(=O)c1csc([C@@H](C[C@H](C(C)C)N(C)C(=O)[C@@H](NC(=O)[C@H]2C[C@H](O)CCN2C)C(C)C)OC(C)=O)n1 | 0.0143 | > 16.7 µM | > 16.7 | – | > 16.7 µM | > 16.7 µM | > 16.7 µM | > 16.7 µM | > 16.7 µM | 0.0879 µM | < 0.00167 µM | 0.0682 µM | < 0.00167 | 0.00421 µM | 0.00781 µM | 0.0356 µM | 0.00208 µM | 0.0146 µM | 0.00384 | 0.00721 µM |
| O=C(/C=C/c1cccc(S(=O)(=O)Nc2ccccc2)c1)NO | – | 2.48 µM and 1.86 µM | – | 17.8 | 3.12 µM and 3.97 µM | 17.8 µM and 44.4 µM | 13.8 µM and 3.12 µM | 13.1 µM and 5.34 µM | 58.1 µM and > 54 µM | 1.34 µM and 1.12 µM | 0.353 µM and 0.118 µM | 0.401 µM and 0.462 µM | 0.248 | 0.444 µM and 0.111 µM | 0.579 µM and 0.603 µM | 0.459 µM and 0.0805 µM | 0.251 µM and 0.0447 µM | 0.529 µM and 0.325 µM | – | 0.273 µM and 0.305 µM |
| O=C1NC(=O)C(c2ccccc2)=C1Nc1ccccc1 | > 25 | > 25 µM | > 25 | > 25 | > 25 µM | > 25 µM | > 25 µM | > 25 µM | > 25 µM | > 25 µM | > 25 µM | > 25 µM | > 25 | > 25 µM | > 25 µM | > 25 µM | > 25 µM | > 25 µM | > 25 | > 22.1 µM |
| O=C1/C(=C\c2ccccc2)CN(C(=O)c2ccccc2)C/C1=C\c1ccccc1 | 7.01 | 11.1 µM | 0.747 | 16.4 | – | 16.3 µM | 7.17 µM | 10.7 µM | 22 µM | 27.4 µM | 2.72 µM | 2.74 µM | 0.238 | 5.02 µM | – | 3.63 µM | 2.96 µM | 3.21 µM | 7.24 | 13 µM |
| CCCCN(CC)CCCCCCCCCCN1CCCc2cc(OC)ccc21 | 3.25 | 7.47 µM | 4.79 | 53 | 3.72 µM | 20.9 µM | 4.98 µM | 10.2 µM | 11 µM | 9.54 µM | 1.6 µM | 2.13 µM | 2.15 | 6.48 µM | 1.8 µM | 5.21 µM | 2.33 µM | 2.69 µM | 3.02 | 2.36 µM |
| Brc1ccc(Nc2nc3ccccc3nc2Nc2ccc(Br)cc2)cc1 | 3.35 | 6.61 µM | 5.87 | 12.4 | 4.22 µM | 11 µM | 4.95 µM | 4.12 µM | 7.04 µM | 2.75 µM | 1.84 µM | 0.714 µM | 0.756 | 0.644 µM | 1.44 µM | 0.393 µM | 1.98 µM | 1.43 µM | 1.9 | 0.0513 µM |
| O=C1c2cccnc2C(=O)c2c1c(C(=O)OCCc1ccccn1)c1ccccn21 | 3.16 | 11.3 µM | – | 1.22 | 1.77 µM | 1.56 µM | 0.924 µM | 0.326 µM | 1.71 µM | 0.824 µM | 1.45 µM | 0.039 µM | 0.219 | 0.0296 µM | 0.342 µM | 0.248 µM | 0.0613 µM | < 0.01 µM | < 0.0153 | < 0.0378 µM |
| Oc1ccc(Cc2ccc(O)c(C3CC(c4ccc(Cl)cc4)=NN3)c2)cc1C1CC(c2ccc(Cl)cc2)=NN1 (stereo unspecified) | 23.9 | > 58.4 µM | > 100 | > 100 | > 42.9 µM | > 100 µM | > 100 µM | > 45.2 µM | > 82.3 µM | > 34.3 µM | 4.17 µM | 3.19 µM | 3.89 | 3.22 µM | 2.39 µM | 2.79 µM | 5.03 µM | 3.81 µM | 3.7 | 0.59 µM |
| CN(CSc1ccc(Cl)cc1)c1ccc(CSc2ccc(Cl)cc2)cc1 | 13.6 | 8.64 µM | > 100 | 25.3 | 13.7 µM | 34.4 µM | 33.1 µM | 29.9 µM | 16.1 µM | 9.61 µM | 3.59 µM | 2.32 µM | 2.11 | 6.69 µM | 2.86 µM | 5.22 µM | 12 µM | 13.6 µM | 2.93 | 1.59 µM |
| O=C(Nc1ccc(I)cc1)c1cccc([N+](=O)[O-])c1O | 34.6 | > 100 µM | 6.73 | > 100 | 11.3 µM | > 100 µM | 9.12 µM | > 100 µM | 38.6 µM | 6.55 µM | 3.66 µM | 2.91 µM | 1.66 | 6.46 µM | 2.39 µM | 4.52 µM | 2.47 µM | 6.93 µM | 2.77 | 1.65 µM |
| COc1ccccc1NC(=O)C(=O)Cc1cnc2ccccc2n1 | > 100 | > 100 µM | > 100 | > 100 | > 100 µM | > 100 µM | – | – | > 100 µM | > 100 µM | – | – | – | – | – | – | – | – | – | – |
